EC50 and IC50 data for five compounds are collected here from ChEMBL document CHEMBL1201862, “PubChem BioAssay data set” (2004).

SMILES strings stand for the structures. The source made the active and inactive calls.

Test [1] has as its target Endoribonuclease toxin MazF (Escherichia coli K-12, UniProt P0AE70). The experiment in a line: substrate-only fluorescence increase artefacts – biochemical, single-stranded RNase substrate, counter-screen for MazEF activator project, dose response (AID 588502). The test is classed as functional. For orientation: A counterscreen serves to expose hits that act by an unwanted route or on another target.

In test [2] the target is T1, Sentrin-specific protease 7 (Homo sapiens, UniProt Q9BQF6).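 Also: Luminescence-based dose-response confirmation of ultra-high-throughput screening hits, measuring inhibition of SENP7.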
T1 sequence (Q9BQF6 whole entry): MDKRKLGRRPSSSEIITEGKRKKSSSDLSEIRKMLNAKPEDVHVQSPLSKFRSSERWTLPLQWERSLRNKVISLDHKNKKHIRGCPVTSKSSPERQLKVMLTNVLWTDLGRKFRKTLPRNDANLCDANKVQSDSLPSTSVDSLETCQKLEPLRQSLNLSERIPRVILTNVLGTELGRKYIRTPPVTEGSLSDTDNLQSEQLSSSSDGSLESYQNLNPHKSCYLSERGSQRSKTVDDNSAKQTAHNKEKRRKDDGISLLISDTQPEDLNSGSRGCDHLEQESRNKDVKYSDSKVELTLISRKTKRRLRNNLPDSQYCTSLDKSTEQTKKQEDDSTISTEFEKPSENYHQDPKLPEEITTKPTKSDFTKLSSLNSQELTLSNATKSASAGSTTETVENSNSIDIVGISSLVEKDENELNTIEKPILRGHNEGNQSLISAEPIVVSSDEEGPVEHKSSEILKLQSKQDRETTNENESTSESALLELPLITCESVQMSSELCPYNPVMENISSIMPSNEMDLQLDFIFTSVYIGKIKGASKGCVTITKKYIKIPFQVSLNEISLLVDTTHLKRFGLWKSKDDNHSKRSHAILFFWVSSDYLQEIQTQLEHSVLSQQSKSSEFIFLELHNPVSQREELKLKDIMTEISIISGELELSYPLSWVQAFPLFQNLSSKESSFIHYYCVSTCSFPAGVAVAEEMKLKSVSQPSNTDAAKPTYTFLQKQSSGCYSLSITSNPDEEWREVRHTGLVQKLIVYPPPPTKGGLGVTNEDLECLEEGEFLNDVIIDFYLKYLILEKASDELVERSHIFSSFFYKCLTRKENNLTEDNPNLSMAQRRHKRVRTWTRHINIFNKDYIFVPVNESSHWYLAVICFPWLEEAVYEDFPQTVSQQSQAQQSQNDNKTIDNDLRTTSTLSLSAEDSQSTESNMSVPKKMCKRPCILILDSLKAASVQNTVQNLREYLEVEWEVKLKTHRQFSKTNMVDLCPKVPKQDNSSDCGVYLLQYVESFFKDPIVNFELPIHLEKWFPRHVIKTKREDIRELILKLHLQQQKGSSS
The test is classed as functional.

The target of test [3] is Small ubiquitin-related modifier 1 (Homo sapiens, UniProt P63165). Description: SUMO1 protein interaction blockers, potency – biochemical, fluorescence polarization, uHTS hits, dose response (AID 624382). The test is classed as functional. Particulars: read-out: IC50_Mean. Background: Fluorescence polarisation rises when a labelled molecule tumbles more slowly, as on binding a larger partner.

The target in test [4] is Eukaryotic translation initiation factor 4E (Mus musculus, UniProt P63073). Description: blockers of eIF4G binding by eIF4E – biochemical, TR-FRET, dose response (AID 855).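 Also: potency for disrupting eIF4E binding to eIF4GI seen as loss of FRET.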 The class given is functional. Background: Time-resolved FRET reads energy transfer from a long-lived donor to a nearby acceptor.
The next test has as its system HEK293. The experiment in a line: Fluorescence-based counterscreen for potentiators or agonists of NPY-Y2: cell-based high-throughput dose response assay to identify inhibitors of cyclic nucleotide gated ion channel (CNGC) activity. In this assay, the parental HEK293 cell line transfected with a cyclic-nucleotide gated ion channel (CNGC)-based cAMP sensor is used to measure inhibition of isoproterenol-induced CNGC activity by test compound. The test is classed as functional. Particulars: Homo sapiens.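 Also: stimulus is 1 µM isoproterenol at EC100 plus PDE inhibitor Ro 20-1724 at 25 µM.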

The nature of test [5]: RKO cell viability reduction, dose response, CellTiter-Glo luminescence (AID 1117322). The class given is functional.
For test [6], the target named is T2, Rac GTPase-activating protein 1 (Homo sapiens, UniProt Q9H0H5).
T2 sequence (Q9H0H5 whole entry): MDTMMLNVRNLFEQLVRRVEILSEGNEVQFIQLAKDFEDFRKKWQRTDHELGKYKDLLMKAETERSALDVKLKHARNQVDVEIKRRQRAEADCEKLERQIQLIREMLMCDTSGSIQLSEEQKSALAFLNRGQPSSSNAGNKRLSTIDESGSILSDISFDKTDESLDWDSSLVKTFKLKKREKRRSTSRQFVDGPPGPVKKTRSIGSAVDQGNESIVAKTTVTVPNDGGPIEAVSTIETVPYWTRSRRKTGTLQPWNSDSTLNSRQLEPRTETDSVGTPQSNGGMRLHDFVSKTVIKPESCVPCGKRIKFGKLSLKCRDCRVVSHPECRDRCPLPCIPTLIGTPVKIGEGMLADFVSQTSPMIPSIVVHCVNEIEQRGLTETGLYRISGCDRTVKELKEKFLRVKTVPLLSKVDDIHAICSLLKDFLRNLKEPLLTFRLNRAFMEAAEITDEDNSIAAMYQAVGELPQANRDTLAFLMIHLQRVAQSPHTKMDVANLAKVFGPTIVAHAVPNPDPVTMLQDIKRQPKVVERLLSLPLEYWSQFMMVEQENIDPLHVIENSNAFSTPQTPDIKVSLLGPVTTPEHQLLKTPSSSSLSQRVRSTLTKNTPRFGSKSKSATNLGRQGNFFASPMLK
Description: blockers of MgcRacGAP-driven Rac1 GTP hydrolysis – biochemical, ADP Hunter fluorescence, primary and confirmatory, confirmation (AID 624330). The class given is functional.

Test [7] in a line: Trypanosoma cruzi growth suppression in host cells – NIH3T3 host cells, beta-gal luminescence, confirmation (AID 2044).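 Also: intracellular parasites grown in NIH/3T3 mouse fibroblasts as host cells; luminescent beta-galactosidase reporter signal from transgenic T. cruzi replicating inside host cells; inhibitors lower the luminescence signal.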 The class given is functional, cell-based.
Test [8] has as its target ATP-dependent molecular chaperone HSP82 (Candida albicans (strain WO-1) (Yeast), UniProt C4YTQ8). Description: steroid-induced GRE reporter decrease in yeast – S. cerevisiae, luminescence, Hsp90 inhibitor project, dose response (AID 2400).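 Also: beta-galactosidase luminescence from glucocorticoid response element reporter as proxy for Hsp90 function; inhibitor potency where signal loss means Hsp90 inhibition.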 The test is classed as functional, cell-based.
A short description of test [9]: HEK-293T viability loss after treatment – luminescence, T-cell screen hits, cytotoxicity control for TCR NF-kB inhibitor project, dose response (AID 489026).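 Also: cells exposed to compound about 14 hours before the viability readout.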 The class given is functional, cell-based.

Endoribonuclease toxin MazF, sequence (P0AE70 whole entry): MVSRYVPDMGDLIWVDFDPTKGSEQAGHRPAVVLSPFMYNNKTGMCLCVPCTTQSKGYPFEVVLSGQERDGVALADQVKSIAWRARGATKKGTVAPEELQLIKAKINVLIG
ATP-dependent molecular chaperone HSP82, sequence (C4YTQ8 whole entry): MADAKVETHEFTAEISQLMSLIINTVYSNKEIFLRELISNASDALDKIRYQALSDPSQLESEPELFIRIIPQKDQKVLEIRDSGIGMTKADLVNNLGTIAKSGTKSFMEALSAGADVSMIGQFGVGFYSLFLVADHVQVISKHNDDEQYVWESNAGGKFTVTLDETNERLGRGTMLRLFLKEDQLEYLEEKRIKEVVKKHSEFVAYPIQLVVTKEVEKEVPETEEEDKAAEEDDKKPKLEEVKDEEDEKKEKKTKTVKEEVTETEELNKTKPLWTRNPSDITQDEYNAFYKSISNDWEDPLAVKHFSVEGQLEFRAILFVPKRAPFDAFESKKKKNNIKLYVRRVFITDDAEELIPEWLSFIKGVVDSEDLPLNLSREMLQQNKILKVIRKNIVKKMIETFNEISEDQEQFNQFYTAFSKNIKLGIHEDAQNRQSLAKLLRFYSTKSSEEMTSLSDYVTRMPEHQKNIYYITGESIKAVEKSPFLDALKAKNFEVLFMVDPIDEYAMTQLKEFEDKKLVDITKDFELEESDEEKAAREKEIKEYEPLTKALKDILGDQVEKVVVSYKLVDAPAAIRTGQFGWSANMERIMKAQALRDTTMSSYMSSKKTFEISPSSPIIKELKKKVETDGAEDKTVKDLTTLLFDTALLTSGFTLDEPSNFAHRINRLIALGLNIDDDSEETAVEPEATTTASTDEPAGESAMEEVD
Small ubiquitin-related modifier 1, sequence (P63165 whole entry): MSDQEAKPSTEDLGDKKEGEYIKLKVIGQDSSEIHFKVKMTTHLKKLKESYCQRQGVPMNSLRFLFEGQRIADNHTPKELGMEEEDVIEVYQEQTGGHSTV
Eukaryotic translation initiation factor 4E, sequence (P63073 whole entry): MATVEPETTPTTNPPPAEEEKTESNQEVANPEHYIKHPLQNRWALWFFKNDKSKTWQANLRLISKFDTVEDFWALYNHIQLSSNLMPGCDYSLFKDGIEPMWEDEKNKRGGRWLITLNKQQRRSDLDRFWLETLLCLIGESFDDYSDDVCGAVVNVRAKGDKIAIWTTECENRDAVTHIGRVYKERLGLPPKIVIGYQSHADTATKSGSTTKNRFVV

What is called EC50 is the concentration needed to bring the measured effect to its halfway point. Turning to `O=[N+]([O-])c1ccc(Sc2cccc[n+]2[O-])c2nonc12`, in test [1], the EC50 was > 99 µM (inactive).
On to `N#Cc1c(N2CCCCC2)nc(N)c2c(N)nc(SCC(=O)O)cc12`, for which the IC50 in test [2] is 11.8 µM (active).
In the case of `Oc1c(Cl)cc(Cl)c(Cl)c1Cc1c(O)c(Cl)cc(Cl)c1Cl` [HEXACHLOROPHENE], the IC50 in [3] is 5.63 µM (active); in test [4] it was 17.9 µM (active); in test [5], 0.108 µM (active). The EC50 with HEK293 was > 11.8 µM (not active).
`Oc1ccc(NC(=S)N=Nc2c(O)[nH]c3ccccc23)cc1`: the IC50 in test [6] was 21.5 µM (active).
With `CCCC(=O)NC(c1ccc(C(C)C)cc1)c1ccc2cccnc2c1O` (stereo not given), the values for the EC50 in test [7] and in test [8] were 0.227 µM (active) and > 160 µM (inactive), respectively. The IC50 in test [9] was > 80 µM (inactive).
